One data set addresses human CYP2C19 (Homo sapiens, UniProt P33261). Put plainly: Oxidation of omeprazole by human CYP2C19, metabolites by HPLC and LC-MS. In kind it is in vitro ADME. The following applies: human CYP2C19, 100 μM omeprazole, NADPH-generating system, 37° C., 30 minutes. The protocol: (§1) CYP102A1 50 pmol and 100 μM substrates were put into 100 mM of a potassium phosphate buffer (pH 7.4) 0.25 me and were subjected to a typical steady state reaction. In order to initiate the reaction, an NADPH-generating system (final concentration: 10 mM glucose 6-phosphate, 0.5 mM NADP^+, and 1 IU yeast glucose 6-phosphate dehydrogenase per 1 me) was added. 20 mM omeprazole solution was prepared by DMSO, and diluted with an enzyme reaction solution so that an organic solvent has the final concentration of 1%(v/v) or less. For measuring an activity of human CYP2C19, 50 pmol P450, 100 pmol NADPH-P450 reductase (CPR), 100 pmol cytochrome b5 and 45 μM L-α-dilauroyl-sn-glycero-3-phosphocholine (DLPC) were used instead of 50 pmol CYP102A1. The reaction solution was reacted at 37 for 30 minutes, and the reaction was terminated by dichloromethane prepared in a cold state with twice amounts of ice.
(§2) The reaction mixture was centrifuged to remove the supernatant, the solvent thereof was evaporated under nitrogen gas (see Vickers et al., 1990), and the obtained mixture was analyzed by HPLC (see Piver et al., 2004). A sample (30 μl) was injected into Gemini C18 column (4.6 mm×150 mm, 5 μm, Phenomenex, Torrance, Calif.). 30% acetonitrile was used as a mobile phase.

Another data set relates to CYP102A1 (P450 BM3). As to conditions: bacterial wild-type CYP102A1 and mutants, 100 μM omeprazole, NADPH-generating system. The protocol: as §1, §2
The nature of data set [1]: Total turnover number (TTN) of omeprazole oxidation by CYP102A1 enzymes, HPLC. In kind it is biochemical, Bacillus megaterium. The following applies: 0.1 mM to 2 mM omeprazole, 30 minutes up to 5 hours, NADPH-generating system. Here is the method: 30% acetonitrile was used as a mobile phase.
It could be confirmed from the results of FIG. 5 that the turnover number of the wild-type CYP102A1, 17 kinds of mutants thereof, and 6 kinds of mutant kimeras varied at a large range. In addition, the total turnover number (TTNs) (mol product/mol catalyst) of the CYP102A1 mutant was investigated. In order to measure TTNs of the CYP102A1 mutant, 0.1 mM to 2 mM omeprazole was used, and the reaction was performed with an interval from 30 minutes up to 5 hours. The production rate of the omeprazole metabolite was determined by HPLC.

These results are taken from patent publication US9243270B2, “Method for producing metabolites from omeprazole using bacterial cytochrome P450, and composition for same” (priority 2012, dated 2016).

Entries after “also recorded” stand apart in the source; their conditions may differ.

human CYP2C19, sequence (P33261 whole entry): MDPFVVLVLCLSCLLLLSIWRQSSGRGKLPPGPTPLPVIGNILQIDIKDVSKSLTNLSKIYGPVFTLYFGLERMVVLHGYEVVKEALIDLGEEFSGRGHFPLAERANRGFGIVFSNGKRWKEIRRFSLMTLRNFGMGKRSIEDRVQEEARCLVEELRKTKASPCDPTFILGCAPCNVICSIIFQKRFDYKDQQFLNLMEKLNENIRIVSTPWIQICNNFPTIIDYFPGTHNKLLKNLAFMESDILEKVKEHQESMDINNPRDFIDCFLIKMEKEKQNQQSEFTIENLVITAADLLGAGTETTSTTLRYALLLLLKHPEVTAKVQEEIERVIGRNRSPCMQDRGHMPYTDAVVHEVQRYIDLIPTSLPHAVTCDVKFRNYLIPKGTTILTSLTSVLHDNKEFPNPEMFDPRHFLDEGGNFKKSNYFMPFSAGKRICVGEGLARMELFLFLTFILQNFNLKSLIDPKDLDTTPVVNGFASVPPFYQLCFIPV

On to `COc1ccc2[nH]c([S+]([O-])Cc3ncc(C)c(OC)c3C)nc2c1` (racemic) [omeprazole], for which the “main metabolites produced from omeprazole” value at human CYP2C19 is 3′-hydroxyomeprazole and 5′-hydroxyomeprazole. For the same molecule, the “main product produced from omeprazole” value in the data set with CYP102A1 (P450 BM3) is reported as 5′-hydroxyomeprazole.

B1: wild-type CYP102A1: bacterial cytochrome P450 BM3 (CYP102A1) from Bacillus megaterium, SEQ ID NO: 16 (protein)
chain: MTIKEMPQPKTFGELKNLPLLNTDKPVQALMKIADELGEIFKFEAPGRVTRYLSSQRLIKEACDESRFDKNLSQALKFVRDFAGDGLFTSWTHEKNWKKAHNILLPSFSQQAMKGYHAMMVDIAVQLVQKWERLNADEHIEVPEDMTRLTLDTIGLCGFNYRFNSFYRDQPHPFITSMVRALDEAMNKLQRANPDDPAYDENKRQFQEDIKVMNDLVDKIIADRKASGEQSDDLLTHMLNGKDPETGEPLDDENIRYQIITFLIAGHETTSGLLSFALYFLVKNPHVLQKAAEEAARVLVDPVPSYKQVKQLKYVGMVLNEALRLWPTAPAFSLYAKEDTVLGGEYPLEKGDELMVLIPQLHRDKTIWGDDVEEFRPERFENPSAIPQHAFKPFGNGQRACIGQQFALHEATLVLGMMLKHFDFEDHTNYELDIKETLTLKPEGFVVKAKSKKIPLGGIPSPSTEQSAKKVRKKAENAHNTPLLVLYGSNMGTAEGTARDLADIAMSKGFAPQVATLDSHAGNLPREGAVLIVTASYNGHPPDNAKQFVDWLDQASADEVKGVRYSVFGCGDKNWATTYQKVPAFIDETLAAKGAENIADRGEADASDDFEGTYEEWREHMWSDVAAYFNLDIENSEDNKSTLSLQFVDSAADMPLAKMHGAFSTNVVASKELQQPGSARSTRHLEIELPKEASYQEGDHLGVIPRNYEGIVNRVTARFGLDASQQIRLEAEEEKLAHLPLAKTVSVEELLQYVELQDPVTRTQLRAMAAKTVCPPHKVELEALLEKQAYKEQVLAKRLTMLELLEKYPACEMKFSEFIALLPSIRPRYYSISSSPRVDEKQASITVSVVSGEAWSGYGEYKGIASNYLAELQEGDTITCFISTPQSEFTLPKDPETPLIMVGPGTGVAPFRGFVQARKQLKEQGQSLGEAHLYFGCRSPHEDYLYQEELENAQSEGIITLHTAFSRMPNQPKTYVQHVMEQDGKKLIELLDQGAHFYICGDGSQMAPAVEATLMKSYADVHQVSEADARLWLQQLEEKGRYAKDVWAG
For B1, in data set [1], the “total turnover number (TTNs), activity towards omeprazole” value is “the activity with respect to the omeprazole was hardly shown; also recorded: hardly had an activity with respect to omeprazole”.
